For the experiment, the target named is T1, B2 bradykinin receptor (Cavia porcellus, UniProt O70526).
T1 sequence (O70526 whole entry): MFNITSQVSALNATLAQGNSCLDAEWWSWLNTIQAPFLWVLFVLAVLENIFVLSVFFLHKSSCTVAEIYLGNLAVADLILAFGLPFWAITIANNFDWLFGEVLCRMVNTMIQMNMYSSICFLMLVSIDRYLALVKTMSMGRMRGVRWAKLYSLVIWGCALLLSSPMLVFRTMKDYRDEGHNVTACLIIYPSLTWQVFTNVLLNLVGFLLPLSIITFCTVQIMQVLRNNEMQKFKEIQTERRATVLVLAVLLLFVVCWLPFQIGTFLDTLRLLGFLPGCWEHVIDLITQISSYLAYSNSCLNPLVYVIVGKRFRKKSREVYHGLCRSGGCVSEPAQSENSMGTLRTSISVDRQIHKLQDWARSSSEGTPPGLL
The experiment in a line: In vitro antagonistic activity for Bradykinin receptor B2 by guinea pig ileal membrane receptor assay. In kind it is functional.

Our source for the IC50 values is ChEMBL document CHEMBL1128686, “Technetium-99m-labeled HOE 140: a potential bradykinin B2 receptor imaging agent” (J Med Chem, 1995).

One may read the IC50 as the concentration that inhibits the measured activity by half.

`NC(N)=NCCC[C@@H](N)C(=O)N[C@@H](CCCN=C(N)N)C(=O)N1CCC[C@H]1C(=O)N1C[C@H](O)C[C@H]1C(=O)NCC(=O)N[C@@H](Cc1cccs1)C(=O)N[C@@H](CO)C(=O)N1Cc2ccccc2C[C@@H]1C(=O)N1[C@H](C(=O)N[C@@H](CCCN=C(N)N)C(=O)O)C[C@@H]2CCCC[C@@H]21` [ICATIBANT] showed an IC50 of 1.07 nM.
